From patent US9381142B2, “Olfactory adaptation and cross-adapting agents to reduce the perception of body odors” (Monell Chemical Senses Center, priority 2002, dated 2016)

Key:
[1] = test system: male stress-derived axillary odor; assay: Cross-adaptation of male stress-derived axillary odor (odor panel, magnitude estimation of perceived intensity); type: in vivo, human; conditions: for Magnitude of Reduction of Intensity of Male Stress-Derived Odor (MSDO), Males: male stress-derived odor perceived by men; for Magnitude of Reduction of Intensity of Male Stress-Derived Odor (MSDO), Females: male stress-derived odor perceived by women
Source text: (§1) The procedure relies upon an individual constantly sniffing an adapting agent, such as a fragrance, and occasionally a test odorant. Perceived intensity of the test odorant is obtained by using psychophysical, magnitude-estimation procedures. These perceived intensities are obtained every 30 seconds over the test period, and are then compared with baseline perceived intensities obtained before the individual began sniffing the adapting agent. Throughout the testing we observe adaptation to the adapting agent. Results during trials with an inserted test odorant, such as the axillary odor used here, are believed to be reasonably predictive. If the perceived intensity of the test odorant decreases during the test, then the adapting agent cross-adapts the test odorant and becomes a cross-adapting agent. If the cross-adapting agent is itself not offensive, then the cross-adapting agent becomes a candidate for use in formulations in consumer products to ameliorate malodors, such as axillary odor or fecal/urine odors, and odors related to the female menstrual cycle.
(§2) Collection of secretions: Apocrine secretions obtained under stressed conditions provided the axillary odor that was used as the test odorant to evaluate the effectiveness of various adapting agents. Secretions were obtained from males (ages 20 to 60 years) and females (ages 20 to 40 years) in good health. […] Volunteers prepared their axillae for collection of apocrine secretions by refraining from deodorant use for 3 days and shaving their axillae the morning of the collection day.
(§3) Volunteers were rested in a supine position. The axillary regions were washed with isopropanol-soaked pads and injected intradermally with 1:10,000 adrenalin (in physiologic saline). This injection stimulated the secretion of apocrine gland secretions, which were collected in 10 μl pipettes, passed into 0.25 ml Eppendorf tubes, and stored on ice (or frozen for longer storage). The amount of secretion collected varied greatly with the individual subject (≦10 μl). The apocrine secretions from each volunteer were combined by consecutively washing each Eppendorf tube with 2×300 μl of doubly distilled water. This aqueous-apocrine fluid was transferred to a 5 ml round-bottomed flask for hydrolysis. X-N. Zeng, J. J. Leyden, J. G. Brand, A. I. Spielman, K. J. McGinley, G. Preti, An Investigation of Human Apocrine Gland Secretion for Axillary Odor Precursors, 18 J. Chem. Ecol. 1039-1055 (1992); X-N. Zeng, J. J. Leyden, A. I. Spielman and G. Preti Analysis of the characteristic human female axillary odors: Qualitative comparison to males. 22 J. Chem. Ecol. 237-257 (1996).
(§4) Production of odor: To produce quantities of stress-derived axillary odor for testing purposes, we hydrolyzed the apocrine secretion. The aqueous solution was refluxed for 20 min with 0.5 ml, 5% aqueous sodium hydroxide under a stream of nitrogen. The mixture was allowed to cool to room temperature, and then it was cooled in ice prior to being acidified with 6 N HCl to pH 2. The resulting axillary odor developed in the reaction mixture upon acidification was used as the test odorant. The axillary odors generated by this in vitro technique are analogous to the malodors produced by stressed individuals.
Sixteen (16) individuals (8 of each gender) served on an odor panel. Subjects ranged in age from 22 to 55 years (mean 32.7±10.6 s.d.), were not pregnant (by verbal report), and were all non-smokers. All panel members were screened for adequate use of magnitude estimation (some people have difficulties maintaining a ratio scale, i.e., when an odorant is half as strong as the previous, these people fail to provide a number that is half the previous estimate) and further trained in its use during 2-3 training sessions. All 16 subjects were tested with samples of male malodor compared to each of the potential cross-adapting agents. […]

[2] = test system: female stress-derived axillary odor; assay: Cross-adaptation of female stress-derived axillary odor (odor panel, magnitude estimation of perceived intensity); type: in vivo, human; conditions: for Magnitude of Reduction of Intensity of Female Stress-Derived Odor (FSDO), Males: female stress-derived odor perceived by men; for Magnitude of Reduction of Intensity of Female Stress-Derived Odor (FSDO), Females: female stress-derived odor perceived by women
Source text: as §1, §2, §3, §4
A separate panel of 24 subjects (12 males and 12 females) tested samples of female stress-derived axillary odor with potential cross-adapting agents, some of which were not included in Example 1 above. Some of the subjects assessing the effectiveness of cross-adaptation of male stress-derived axillary odor were also used in the experiment with female secretions. However, these two experiments were treated as independent events. All panel members were screened for adequate use of magnitude estimation and further trained in its use during two to three training sessions. […]

[3] = listed as E-isomer 3-methyl-2-pentenoic acid ethyl ester
Also: key: best: Best = Superior Cross-Adaptation; good: Good = Adequate Cross-Adaptation; poor: Poor = Ineffective Cross-Adaptation.

| Compound | Magnitude of Reduction of Intensity of Male Stress-Derived Odor (MSDO), Males [1] | Magnitude of Reduction of Intensity of Male Stress-Derived Odor (MSDO), Females [1] | Magnitude of Reduction of Intensity of Female Stress-Derived Odor (FSDO), Males [2] | Magnitude of Reduction of Intensity of Female Stress-Derived Odor (FSDO), Females [2] | Magnitude of Reduction of Intensity of Male Stress-Derived Odor (MSDO), Males [1, 3] | Magnitude of Reduction of Intensity of Male Stress-Derived Odor (MSDO), Females [1, 3] | Magnitude of Reduction of Intensity of Male Stress-Derived Odor (MSDO), Males ([1]; listed as Z-isomer 3-methyl-2-pentenoic acid ethyl ester) |
| --- | --- | --- | --- | --- | --- | --- | --- |
| CCCCCC(C)=CC(=O)OCC (single isomer, unassigned) [E-, Z-isomers (3:1) of 3-methyl-2-octenoic acid ethyl esters, 3-methyl-2-octenoic acid ethyl esters] | best | best | best | best |  |  |  |
| CCOC(=O)C=C(C)CC (single isomer, unassigned) [E-isomer of 3-methyl-2-pentenoic acid ethyl ester, 3-methyl-2-pentenoic acid ethyl ester] | good | good | poor | poor | good | good |  |
| CCOC(=O)C=C(C)CC (single isomer, unassigned) [Z-isomer of 3-methyl-2-pentenoic acid ethyl ester, 3-methyl-2-pentenoic acid ethyl ester] | best | poor | poor | poor |  |  | best |
| CC(=O)OC1CCCCC1C(C)(C)C (centres unmarked) [Agrumex, 2-tert-butyl cyclohexyl acetate] | good | poor | poor | best |  |  |  |
| O=C1CCCCCCCC=CCCCCCCO1 [Ambrettolide, oxacycloheptadec-10-en-2-one] | poor | poor | poor | good |  |  |  |
| COc1ccc(C=O)cc1 [Anisic Aldehyde, 4-methoxybenzaldehyde] |  |  | best | good |  |  |  |
| CCCCCCCC1CCC(=O)O1 (centres unmarked) [C14 Aldehyde, gamma-undecalactone] | good | poor | good | good |  |  |  |
| CO[C@]1(C)CC[C@@]23C[C@@H]1C(C)(C)[C@@H]2CC[C@H]3C [CEDRAMBER ®, cedryl methyl ether] | good | poor | good | good |  |  |  |
| Cc1ccc2c(c1)OCC(=O)CO2 [Calone 1951, 7-methyl-314-dihydro-2H-1,5-benzodioxepin-3-one] |  |  | good | good |  |  |  |
| COC(C=C(C)CCC=C(C)C)OC [Citrylal, Octa-2,6-dien; 1,1-dimethoxy-3-7-dimethyl] | best | good |  |  |  |  |  |
| C/C=C/C(=O)OC(C)C1CCCCC1 (centres unmarked) [Datilat, Cyclohexyl methyl carbinol crotonate] | poor | poor |  |  |  |  |  |
| CCCCCC(C)=CC(=O)OCC [E-isomer of 3-methyl-2-octenoic acid ethyl ester, 3-methyl-2-octenoic acid ethyl ester] |  |  | good | poor |  |  |  |
| CCOc1cc(C=O)ccc1O [Ethyl Vanillin, 3-Ethoxy-4-hydroxybenzaldehyde] |  |  | best | poor |  |  |  |
| COC(=O)c1c(C)cc(O)c(C)c1O [Evernyl, methyl 2,4-dihydroxy-3,6-dimethylbenzoate] |  |  | poor | good |  |  |  |
| O=C1CCCC=CCCCCCCCCCC1 [GLOBANONE ®, cyclohexadecen-5-one-1] |  |  | good | poor |  |  |  |
| CC(C=O)Cc1ccc(C(C)(C)C)cc1 (stereo not drawn) [Lilial, 4-(1,1-dimethylethyl)-alpha-methylbenzenepropanal] |  |  | good | poor |  |  |  |
| CC(C)(O)CCCC1=CCC(C=O)CC1 (centres unmarked) [Lyral, 4-(4-hydroxy-4-methylpentyl)-3-cyclohexenE-1-carboxaldehyde] |  |  | good | poor |  |  |  |
| Cc1cccc(CC(C)(C)CO)c1 [MAJANTOL ®, 2,2-dimethyl-3-(methylphenyl)propanol] |  |  | good | poor |  |  |  |
| CC(C)C1CCC(C(C)O)CC1 (centres unmarked) [Mugetanol, 1-(4-isopropylcyclohexyl)ethanol] | good | poor |  |  |  |  |  |
| CC(=O)c1oc2ccccc2c1C [Nerolione, 1-(3-bethyl-2-benzofuranyl)-ethanone] | good | poor |  |  |  |  |  |
| CCC(C)(O)CCCC(C)C (centres unmarked) [Tetrahydro Linalool, 3,7-Dimethyloctan-3-ol] | best | poor |  |  |  |  |  |
| CC(O)C(C)CC1C(C)CCCC1(C)C (centres unmarked) [Timbranol, Isomethyltetrahydroionol] | poor | poor |  |  |  |  |  |
| CC(=O)c1cc2c(cc1C)C(C)(C)C(C)CC2(C)C (centres unmarked) [Tonalide, 7-Acetyl-1,1,3,4,4,6-hexamethyltetralin] | good | poor |  |  |  |  |  |
| CC=CC(=O)C1C(C)C=CCC1(C)C (centres unmarked) [Δ-Damascone, 1-(2,6,6-trimethyl-3-cyclohexen-1-yl)-2-buten-1-one] | best | good |  |  |  |  |  |
| CC(=O)C=CC1C(C)=CCCC1(C)C (stereo not drawn) [α-ionone, 4-(2,2,6-trimethyl-2cyclohexen-1-yl)-3-buten-2-one] |  |  | good | good |  |  |  |
| alpha-n-methylionone [Isoraldeine 70] |  |  | best | poor |  |  |  |
| isobornyl cyclohexanol | good | poor |  |  |  |  |  |
